The text below walks through data of patent publication US8541576B2, “Substituted pyrazolo-quinazoline derivatives as kinase inhibitors” (Nerviano Medical Sciences SRL, priority 2010, dated 2013).

One experiment has as its target T1, Full-length human PIM-1 (Homo sapiens, UniProt P11309).
T1 construct: Full-length human PIM-1 was expressed and purified; made in house
The experiment is described as follows: Biochemical assay for inhibitors of PIM-1 kinase activity (trans-phosphorylation, Dowex resin, 33P-ATP). The conditions noted are these: ATP 200 μM, enzyme 1 nM, Aktide 25 μM. As to the method:
Biochemical assay for inhibitors of PIM-1 kinase activity
The inhibitory activity of putative kinase inhibitors and the potency of selected compounds were determined using a trans-phosphorylation assay.
Specific peptide or protein substrates are trans-phosphorylated by their specific ser-thr or tyr kinase in the presence of ATP traced with ^33P-γ-ATP, and in the presence of their own optimal buffer and cofactors.
At the end of the phosphorylation reaction, more than 98% unlabeled ATP and radioactive ATP is captured by an excess of the ion exchange Dowex® resin; the resin then settles down to the bottom of the reaction plate by gravity.
Supernatant is subsequently withdrawn and transferred into a counting plate, then evaluated by β-counting.
The buffer for PIM-1 assay was composed of HEPES 50 mM, at pH 7.5, with 10 mM MgCl2, 1 mM DTT, 3 μM NaVO3, and 0.2 mg/ml BSA
Full-length human PIM-1 was expressed and purified as described in Bullock A N, et al., J. Biol. Chem. 2005, 280, 41675-82.
1.7 μM PIM1 was incubated 1 hour RT at 28° C. in the presence of 125 μM ATP
ATP concentration: 200 μM
Enzyme concentration: 1 nM
Substrate concentration Aktide (Chemical Abstract Service Registry Number 324029-01-8): 25 μM
The test mix consisted of:
1) 3× Enzyme mix (done in Kinase Buffer 3×), 5 μL/well
2) 3× substrate and ATP mix (done in ddH2O), together with ^33P-γ-ATP, 5 μL/well
3) 3× test compounds (diluted into ddH2O—3% DMSO)-5 μL/well
For IC50 determination, test compounds are received as a 1 mM solution in 100% DMSO and distributed into 96-well plates: compounds are then plated into the first column of a new 96-well plate (A1 to G1), 100 μl/well.
An automated station (Biomek FX®, Beckman) is used for serial dilutions, producing 1:3 dilutions in 100% DMSO, from line A1 to A10, for all the compounds in the column. Moreover, 4-5 copies of daughter plates are prepared by reformatting 5 μL of this first set of 100% DMSO dilution plates into 384-deep well plates: one copy of these serial dilution plates with the test compounds is thawed on the day of study, reconstituted at the working concentration (3-fold the final concentration) with 162 μL/well of water and used for IC50 determination assays. In a standard experiment, the highest concentration (3×) of compounds is typically 30 μM, while the lowest one is typically 1.5 nM.
Each 384-well plate generates at least one curve of the standard inhibitor staurosporine and reference wells (total enzyme activity vs. no enzymatic activity) for evaluation of Z′ and signal to background (S/B) ratio.
384-well plates, V bottom (test plates) are prepared with 5 μl of compound diluted as previously described (3×) and then placed onto a PlateTrak® 12 robotized station (Perkin Elmer; the robot has one 384-tip pipetting head for assay start, plus one 96-tip head for dispensing resin) together with one reservoir for Enzyme mix (3×) and one for ATP mix (3×).
Data are analyzed by an internally customized version of the “Assay Explorer®” SW package, which provides sigmoidal fitting of the ten-dilution curves for IC50 determination in secondary assay/hit confirmation routines.

A further experiment addresses T2, Full-length human PIM-2 (Homo sapiens, UniProt Q9P1W9).
T2 construct: Full-length human PIM-2 was expressed and purified; made in house
Description: PIM-2 kinase inhibition assay: Dowex technique. The class given is biochemical. The conditions noted are these: ATP 4 μM, enzyme 1.5 nM, Aktide 5 μM. As to the method:
Method for PIM-2 Kinase Inhibition Assay: Dowex Technique
The buffer for PIM-2 assay was composed of HEPES 50 mM, at pH 7.5, with 1 mM MgCl2, 1 mM DTT, 3 μM Na3VO4, and 0.2 mg/ml BSA
Full-length human PIM-2 was expressed and purified as described in Fedorov O, et al. (2007) PNAS 104, 51, 20523-28.
Assay Conditions (Final Concentrations):
Enzyme concentration=1.5 nM
Aktide substrate (Chemical Abstract Service Registry Number 324029-01-8)=5 μM
See above: same procedure as described for PIM-1.

Experiment [1] relates to MV-4-11 (biphenotypic B myelomonocytic leukemia) cells. The experiment is described as follows: In vitro cell proliferation assay (CellTiter-Glo). The format is cell-based. The conditions noted are these: Homo sapiens, MV4-11, antiproliferative activity, 72 hours. The procedure: In Vitro Cell Proliferation Assay:
MV-4-11 (biphenotypic B myelomonocytic leukemia) cells (1250 cells/well) were seeded in white 384 well-plates in complete medium (RPMI 1640 or EMEM plus 10% Fetal bovine serum) and treated with compounds dissolved in 0.1% DMSO, 24 h after seeding. The cells were incubated at 37° C. and 5% CO2 and after 72 hours the plates were processed using CellTiter-Glo® assay (Promega) following the manufacturer's instruction. CellTiter-Glo® is a homogenous method based on the quantification of the ATP present, an indicator of metabolically active cells. ATP is quantified using a system based on luciferase and D-luciferin resulting into light generation. The luminescent signal is proportional to the number of cells present in culture.
Briefly 25 μl/well reagent solution was added to each wells and after 5 minutes shacking microplates were red by Envision® (PerkinElmer) luminometer. The luminescent signal was proportional to the number of cells present in culture.
Inhibitory activity was evaluated comparing treated versus control data using Assay Explorer (MDL) program. IC50 was calculated using sigmoidal interpolation curve.
(In general: In ATP-based viability assays light output follows the ATP content of the culture.)

T1 sequence (P11309 whole entry): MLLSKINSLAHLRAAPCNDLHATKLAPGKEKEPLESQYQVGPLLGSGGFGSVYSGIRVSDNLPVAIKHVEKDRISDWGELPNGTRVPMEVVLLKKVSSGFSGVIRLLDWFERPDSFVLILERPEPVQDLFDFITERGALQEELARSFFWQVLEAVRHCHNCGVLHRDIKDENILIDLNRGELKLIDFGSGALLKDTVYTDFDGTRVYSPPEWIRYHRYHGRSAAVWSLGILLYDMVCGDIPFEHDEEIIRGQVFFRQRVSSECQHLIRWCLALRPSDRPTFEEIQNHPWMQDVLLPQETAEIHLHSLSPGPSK
T2 sequence (Q9P1W9 whole entry): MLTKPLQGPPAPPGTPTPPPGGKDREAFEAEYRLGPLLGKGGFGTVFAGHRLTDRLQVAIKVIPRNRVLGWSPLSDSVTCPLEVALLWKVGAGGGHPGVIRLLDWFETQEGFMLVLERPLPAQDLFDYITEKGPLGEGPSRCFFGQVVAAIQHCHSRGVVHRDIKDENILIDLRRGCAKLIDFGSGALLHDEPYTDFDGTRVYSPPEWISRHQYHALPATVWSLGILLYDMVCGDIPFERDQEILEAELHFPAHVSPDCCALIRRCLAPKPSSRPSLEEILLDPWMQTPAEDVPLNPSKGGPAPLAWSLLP

On to `CSc1ncc2ccc3c(C(N)=O)nn(C)c3c2n1` [Compound 87, 1-methyl-8-(methylsulfanyl)-1H-pyrazolo[4,3-h]quinazoline-3-carboxamide], for which the IC50 against Full-length human PIM-1 came out at 123 nM; against Full-length human PIM-2, 888 nM; in experiment [1], 1940 nM.
In the case of `CSc1ncc2ccc3c(C(N)=O)nn(CC4CCNCC4)c3c2n1` [Compound 17, 8-(methylsulfanyl)-1-(piperidin-4-ylmethyl)-1H-pyrazolo[4,3-h]quinazoline-3-carboxamide], the IC50 against Full-length human PIM-1 amounted to 9 nM; against Full-length human PIM-2, 160 nM; in experiment [1] it was 1540 nM.
With `NC(=O)c1nn(C2CCC(N)CC2)c2c1ccc1cnc(-c3ccccc3)nc12` (centres unmarked) [Compound 111, 1-(4-aminocyclohexyl)-8-phenyl-1H-pyrazolo[4,3-h]quinazoline-3-carboxamide], the IC50 amounted to 400 nM against Full-length human PIM-1 and 210 nM at Full-length human PIM-2.
As for `CSc1ncc2ccc3c(C(N)=O)nn(C4CN5CCC4CC5)c3c2n1` (centres unmarked) [Compound 103, 1-(1-azabicyclo[2.2.2]oct-3-yl)-8-(methylsulfanyl)-1H-pyrazolo[4,3-h]quinazoline-3-carboxamide], the figures for the IC50 (against Full-length human PIM-1; on Full-length human PIM-2; in experiment [1]) were 15 nM, 28 nM and 221 nM, respectively.
Regarding `CN1CCN(c2ccc(Oc3ncc4ccc5c(C(N)=O)nn(C)c5c4n3)c(F)c2)CC1` [Compound 36, 8-[2-fluoro-4-(4-methylpiperazin-1-yl)phenoxy]-1-methyl-1H-pyrazolo[4,3-h]quinazoline-3-carboxamide], the values for the IC50 (against Full-length human PIM-1; against Full-length human PIM-2; in experiment [1]) were 116 nM, 694 nM and 940 nM, respectively.
Consider `CN1CCN(c2ccc(Oc3ncc4ccc5c(C(N)=O)nn(CCO)c5c4n3)cc2)CC1` [Compound 46, 1-(2-hydroxyethyl)-8-[4-(4-methylpiperazin-1-yl)phenoxy]-1H-pyrazolo[4,3-h]quinazoline-3-carboxamide], for which the IC50 amounted to 81 nM on Full-length human PIM-1, 1300 nM on Full-length human PIM-2 and 673 nM in experiment [1].
The matching figures for `Cn1nc(C(N)=O)c2ccc3cnc(Oc4ccc(N5CCNCC5)cc4)nc3c21` [Compound 27, 1-methyl-8-[4-(piperazin-1-yl)phenoxy]-1H-pyrazolo[4,3-h]quinazoline-3-carboxamide]: 4 nM, 498 nM and 308 nM.
Take `CSc1ncc2ccc3c(C(N)=O)nn(C(C)CCN)c3c2n1` (centres unmarked) [Compound 102, 1-(4-aminobutan-2-yl)-8-(methylsulfanyl)-1H-pyrazolo[4,3-h]quinazoline-3-carboxamide]: the results for the IC50 (at Full-length human PIM-1; against Full-length human PIM-2; in experiment [1]) were 1 nM, 1 nM and 35 nM, respectively.
With `CSc1ncc2ccc3c(C(N)=O)nn([C@@H]4C[C@H]5CC[C@@H](C4)N5)c3c2n1` [Compound 99, 1-[(3-exo)-8-azabicyclo[3.2.1]oct-3-yl]-8-(methylsulfanyl)-1H-pyrazolo[4,3-h]quinazoline-3-carboxamide], the IC50 came out at 16 nM at Full-length human PIM-1, 33 nM against Full-length human PIM-2 and 102 nM in experiment [1].
For the molecule `CN1CCN(c2ccc(Oc3ncc4ccc5c(C(N)=O)nn(C)c5c4n3)cc2)CC1` [Compound 26, 1-methyl-8-[4-(4-methylpiperazin-1-yl)phenoxy]-1H-pyrazolo[4,3-h]quinazoline-3-carboxamide], the IC50 against Full-length human PIM-1 was 33 nM; against Full-length human PIM-2, 861 nM; in experiment [1], 520 nM.
With `CSc1ncc2ccc3c(C(N)=O)nn([C@H]4C[C@@H](CO)C4)c3c2n1` [Compound 106, 1-[cis-3-(hydroxymethyl)cyclobutyl]-8-(methylsulfanyl)-1H-pyrazolo[4,3-h]quinazoline-3-carboxamide], the IC50 at Full-length human PIM-1 came to 3 nM; against Full-length human PIM-2 it was 13 nM; in experiment [1] it was 21 nM.
The matching figures for `CSc1ncc2ccc3c(C(N)=O)nn(CCN)c3c2n1` [Compound 15, 1-(2-aminoethyl)-8-(methylsulfanyl)-1H-pyrazolo[4,3-h]quinazoline-3-carboxamide]: 143 nM, 282 nM and 1430 nM.
As to `Cn1nc(C(N)=O)c2c1-c1nc(N3CCCCC3)ncc1CC2` [Ref. Compound 1, 1-methyl-8-(piperidin-1-yl)-4,5-dihydro-1H-pyrazolo[4,3-h]quinazoline-3-carboxamide, reference compound], the IC50 at Full-length human PIM-1 and on Full-length human PIM-2 was above 10000 nM in each case.
In the case of `CN1CCN(c2ccc(Oc3ncc4c(n3)-c3c(c(C(N)=O)nn3C)CC4)cc2)CC1` [Compound 25, 1-methyl-8-[4-(4-methylpiperazin-1-yl)phenoxy]-4,5-dihydro-1H-pyrazolo[4,3-h]quinazoline-3-carboxamide], the IC50 was 776 nM against Full-length human PIM-1, above 10000 nM against Full-length human PIM-2 and above 10000 nM in experiment [1].
As to `CSc1ncc2ccc3c(C(N)=O)nn(C4CCNCC4)c3c2n1` [Compound 91, 8-(methylsulfanyl)-1-(piperidin-4-yl)-1H-pyrazolo[4,3-h]quinazoline-3-carboxamide], the IC50 against Full-length human PIM-1 was determined as 19 nM; against Full-length human PIM-2, 46 nM; in experiment [1], 1440 nM.
The matching figures for `CSc1ncc2ccc3c(C(N)=O)nn(C4CCCNC4)c3c2n1` (centres unmarked) [Compound 92, 8-(methylsulfanyl)-1-(piperidin-3-yl)-1H-pyrazolo[4,3-h]quinazoline-3-carboxamide]: 22 nM, 21 nM and 147 nM.
`CN(C)c1ncc2ccc3c(C(N)=O)nn(C(C)(C)C)c3c2n1` [Compound 52, 1-tert-butyl-8-(dimethylamino)-1H-pyrazolo[4,3-h]quinazoline-3-carboxamide]: the results for the IC50 (against Full-length human PIM-1; at Full-length human PIM-2; in experiment [1]) were 13 nM, 21 nM and 866 nM, respectively.
As for `CNC(=O)c1nn(C(C)(C)C)c2c1ccc1cnc(SC)nc12` [Compound 7, 1-tert-butyl-N-methyl-8-(methylsulfanyl)-1H-pyrazolo[4,3-h]quinazoline-3-carboxamide], the IC50 against Full-length human PIM-1 was 41 nM; against Full-length human PIM-2 it was 156 nM; in experiment [1] it was 1760 nM.
In the case of `CSc1ncc2c(n1)-c1c(c(C(N)=O)nn1C)CC2` [Ref. Compound 2, 1-methyl-8-(methylsulfanyl)-4,5-dihydro-1H-pyrazolo[4,3-h]quinazoline-3-carboxamide, reference compound], the figures for the IC50 against Full-length human PIM-1 and at Full-length human PIM-2 were 1010 nM and above 10000 nM, respectively.
Turning to `CC(=O)c1cc(N2CCN(C)CC2)ccc1Oc1ncc2ccc3c(C(N)=O)nn(C)c3c2n1` [Compound 37, 8-[2-acetyl-4-(4-methylpiperazin-1-yl)phenoxy]-1-methyl-1H-pyrazolo[4,3-h]quinazoline-3-carboxamide], the IC50 against Full-length human PIM-1 was 4120 nM; against Full-length human PIM-2 it was above 1000 nM.

In general, IC50 refers to the concentration needed to halve the response being measured. A lower IC50 goes with inhibition by little substance.
